This experiment relates to 743489-274-T-PDC complex spheroid viability. The experiment in a line: Anticancer human tumor 743489-274-T-PDC patient-derived renal cell carcinoma cell line growth inhibition. Particulars: for viability, T/C: stronger effect = lower value. The text has this:
Multicellular complex tumor spheroid response to LSD1 Inhibitor Iadademstat in combination with a variety of drugs and investigational agents in selected tumor cell lines
The current study was undertaken to assess response to LSD1 inhibitors in combination with standard-of-care drugs and investigational agents in solid tumor complex spheroid models as well as in the K-562 leukemia. Complex spheroids include a stromal component modeled by human endothelial cells (HUVEC) and fibroblasts modeled by human mesenchymal stem cells (MSCs). The concentration ranges selected for each drug and investigational agent were based upon clinically achievable concentrations if the clinical Cmax of the agent was known.
Compounds. The drugs and investigational agents used in this study are listed on Table 1. All of the agents used, including staurosporine (NSC755774) and gemcitabine (NSC613327), were obtained from the Developmental Therapeutics Program, NCI. FDA-approved anticancer drugs are available from the NCI at http://dtp.nci.nih.gov/branches/dscb/oncology_drugset_explanation.html. Drugs and investigational agents were >95% pure by proton nuclear magnetic resonance (NMR) and liquid chromatography/mass spectrometry (LC/MS). Stock solutions were prepared at 400x in DMSO, stored at -70 degrees C, and diluted in fresh medium prior to their use. The final concentration of DMSO in cell culture wells never exceeded 0.25% (v/v). The FDA-approved anticancer drug set is available from the Developmental Therapeutics Program at https://dtp.cancer.gov/organization/dscb/obtaining/available_plates.htm. All drugs and investigational agents were tested over a range starting from a high concentration at or near the clinical Cmax and decreasing in half-log increments. If the clinical Cmax for an agent had not been determined, the highest concentration tested was 10 microM.
Cell Lines. The patient-derived cancer cell (PDC) lines: 292921-168-R-J2-PDC, K24384-001-R-PDC, and 521955-158-R2-J5-PDC pancreatic carcinomas, 556581-035-R-J1 ovarian carcinoma, 324938-238-R-J1-PDC, 855422-203-R-J1-PDC and 883617-216-R-J1-PDC urothelial bladder carcinomas, 743489-274-T-PDC renal cell carcinoma, 138582-R-J1 Merkel cell tumor, K60290-347-R-J1 and K57222-313-R-J1-PDC glioblastomas, 653999-131-R-J2-PDC, LG0703-F948-PDC, and 349418-098-R-PDC non-small cell lung carcinomas, 885512-296-R-J2-PDC, 171881-019-R-J1-PDC breast carcinomas and 186277-243-T-J2-PDC and 233499-124-R-J2-PDC colon carcinomas were obtained from the NCI Patient-Derived Models Repository (PDMR, https://pdmr.cancer.gov). The established cell lines NCI/ADR-RES (RRID:CVCL_14520 and OVCAR-5 (RRID:CVCL_1628) ovarian carcinomas, 786-O (RRID:CVCL_1051) and A498 (RRID:CVCL_A498) renal cell carcinoma, NCI-H211 (ATCC, cat. CRL-5824; RRID:CVCL_1529), NCI-H196 (ATCC, cat. CRL-5823, RRID:CVCL_1509), SW 1271 (ATCC, cat. CRL-2177, RRID:CVCL_1716) and NCI-H1876 (ATCC, cat. CRL-5902, RRID:CVCL_1503) small cell lung carcinomas, MDA-MB-231 (RRID:CVCL_0062) and MDA-MB-468 (RRID:CVCL_0419)breast carcinomas (10-12). Pooled donor human umbilical vein endothelial cells (HUVEC, Lonza, cat. CC-2519) and human mesenchymal stem cells (hMSC, Lonza, cat. PT-2501) were purchased from Lonza (Walkersville, MD).
Cell Culture. All cells were maintained in an incubator at 37 degrees C and 5% CO2 with 95% humidity. The PDC lines were cultured according to standard operating procedures established by the NCI PDMR (https://pdmr.cancer.gov). Briefly all PDCs were thawed and cultured in Matrigel-coated flasks prepared with a working solution of 1X Ham's F-12 nutrient mix, without supplementation (Invitrogen, Waltham, MA, cat. 11765054), 100 U/mL penicillin-streptomycin (Invitrogen, cat. 15140122), and 2.5% Matrigel (Corning Inc., Corning, NY, cat. 354248) for the first three passages. […]

“And” between values parts separate entries of the source, which are not always exact repeats. Equal values may be shown once.

By viability, T/C is commonly meant the ratio of treated to control. What is called IC50 is the midpoint of a concentration-inhibition curve.
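Note: spheroids exposed to compounds for 7 days before readout.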

With `CC(C)c1c(-c2ccccc2)nc2c(C#N)c[nH]n2c1=O`, the viability, T/C (compound 0.0316 µM) is 106% and 94.8%; the viability, T/C (compound 0.1 µM) is 100% and 102%; the viability, T/C (compound 0.316 µM) was 86.4% and 102%; the viability, T/C (compound 1 µM) was 96% and 107%; the viability, T/C (compound 3.16 µM) is 93.2% and 93.5%. The IC50 (curve of compound) was over 10000 nM.

Regarding `CC1COCCN1c1cc(C2(S(C)(=N)=O)CC2)nc(-c2ccnc3[nH]ccc23)n1` (centres undefined), the viability, T/C runs as follows: (compound 0.0316 µM) 93.4% and 107%; (compound 0.1 µM) 112% and 104%; (compound 0.316 µM) 99.9% and 87%; (compound 1 µM) 93.9% and 91.4%; (compound 3.16 µM) 100% and 90.3%; (compound 10 µM) 81.3% and 63.8%. For the same compound, the half-maximal inhibitory concentration (IC50) (curve of compound) is over 10000 nM.

On to `COc1ccc([C@@H](O)c2cc(-c3ncnc4cc(N5CCOCC5)ccc34)c(F)cc2Cl)nn1`, for which the viability, T/C runs as follows: (compound 0.0316 µM) 108% and 93.4%; (compound 0.1 µM) 100% and 95.8%; (compound 0.316 µM) 90.5% and 72.5%; (compound 1 µM) 59.4% and 43.6%; (compound 3.16 µM) 38.7% and 21.3%; (compound 10 µM) 20.8% and 19.4%. In addition, under “curve of compound”, the IC50 was 1730 nM and 753 nM.

For the compound `NC1CC1c1ccc(-c2cccc(O)c2)cc1` (centres undefined), for the setting “compound 0.316 µM”, the viability, T/C was 103% [middle of 25 runs]. The 50% inhibitory concentration (IC50) (compound alone, run of 12/07/2021) was over 10000 nM.

Take `NC1CCC(NC2CC2c2ccccc2)CC1` (centres undefined): the viability, T/C (compound 0.316 µM) is 105% and 107%. Further, the half-inhibitory concentration (IC50) (compound alone, run of 11/29/2021) was over 10000 nM.

As for `Nc1ncn(C2CC(O)C(CO)O2)c(=O)n1` (centres undefined) + NC1CC1c1ccc(-c2cccc(O)c2)cc1, the IC50 is, setting by setting: (curve of first compound, second compound 0.1 µM) over 1000 nM; (curve of first compound, second compound 0.316 µM) over 1000 nM; (curve of first compound, second compound 1 µM) over 1000 nM; (curve of first compound, second compound 3.16 µM) over 1000 nM; (curve of first compound, second compound 10 µM) over 1000 nM. The viability, T/C was 109% (second compound 0.1 µM, first compound 0.00316 µM); 101% (second compound 0.1 µM, first compound 0.01 µM); 97.9% (second compound 0.1 µM, first compound 0.0316 µM); 95.1% (second compound 0.1 µM, first compound 0.1 µM); 91.2% (second compound 0.1 µM, first compound 0.316 µM); 117% (second compound 0.1 µM, first compound 1 µM). The viability, T/C was found to be 104% (second compound 0.316 µM, first compound 0.00316 µM); 101% (second compound 0.316 µM, first compound 0.01 µM); 97.7% (second compound 0.316 µM, first compound 0.0316 µM); 91.5% (second compound 0.316 µM, first compound 0.1 µM); 102% (second compound 0.316 µM, first compound 0.316 µM); 95.3% (second compound 0.316 µM, first compound 1 µM). The viability, T/C (second compound 1 µM, first compound 0.00316 µM) worked out at 107%; the viability, T/C (second compound 1 µM, first compound 0.01 µM) came to 110%; the viability, T/C (second compound 1 µM, first compound 0.0316 µM) was determined as 94.1%; the viability, T/C (second compound 1 µM, first compound 0.1 µM) worked out at 89.6%; the viability, T/C (second compound 1 µM, first compound 0.316 µM) is 90%; the viability, T/C (second compound 1 µM, first compound 1 µM) amounted to 93%. Also, the viability, T/C (second compound 3.16 µM, first compound 0.00316 µM) turned out to be 93.2%; the viability, T/C (second compound 3.16 µM, first compound 0.01 µM) amounted to 102%; the viability, T/C (second compound 3.16 µM, first compound 0.0316 µM) was 105%; the viability, T/C (second compound 3.16 µM, first compound 0.1 µM) stood at 88.2%; the viability, T/C (second compound 3.16 µM, first compound 0.316 µM) came out at 82.5%; the viability, T/C (second compound 3.16 µM, first compound 1 µM) was determined as 86.8%. Besides, the viability, T/C is, setting by setting: (second compound 10 µM, first compound 0.00316 µM) 102%; (second compound 10 µM, first compound 0.01 µM) 126%; (second compound 10 µM, first compound 0.0316 µM) 104%; (second compound 10 µM, first compound 0.1 µM) 99.7%; (second compound 10 µM, first compound 0.316 µM) 83.2%; (second compound 10 µM, first compound 1 µM) 88.6%.
